Laboratory results as given in PubChem BioAssay AID493144 (Sanford-Burnham Center for Chemical Genomics, 2011).
The source made the active and inactive calls. No rule for the calls is given here.

target: Intestinal-type alkaline phosphatase (Homo sapiens) (UniProt P09923); test: human IAP inhibitors, SAR follow-up, mouse IAP inhibitor project, biochemical, human enzyme for mouse series (AID 493144); details: purified human intestinal alkaline phosphatase, enzymatic activity
Sequence (P09923 whole entry, looked up): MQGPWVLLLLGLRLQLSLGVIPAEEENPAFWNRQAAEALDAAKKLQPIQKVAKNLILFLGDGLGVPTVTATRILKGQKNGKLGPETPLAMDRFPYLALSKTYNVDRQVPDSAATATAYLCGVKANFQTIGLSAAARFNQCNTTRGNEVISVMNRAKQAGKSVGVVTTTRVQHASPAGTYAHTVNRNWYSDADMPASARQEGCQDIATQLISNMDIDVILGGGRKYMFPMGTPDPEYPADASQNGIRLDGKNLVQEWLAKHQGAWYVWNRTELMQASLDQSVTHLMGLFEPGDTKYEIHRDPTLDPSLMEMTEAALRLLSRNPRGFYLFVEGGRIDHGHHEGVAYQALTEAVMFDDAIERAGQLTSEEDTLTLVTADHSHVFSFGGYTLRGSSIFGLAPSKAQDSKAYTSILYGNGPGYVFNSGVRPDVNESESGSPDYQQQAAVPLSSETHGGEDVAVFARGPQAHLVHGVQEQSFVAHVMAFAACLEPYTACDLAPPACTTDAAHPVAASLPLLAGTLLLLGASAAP

SMILES | IC50
COc1cc([N+](=O)[O-])ccc1NC(=S)NCCC(c1ccccc1)c1ccccc1 | > 100 µM (inactive)
Cc1cc(NC(=O)CCNS(=O)(=O)c2ccc3[nH]c(=O)oc3c2)ccc1Br | > 100 µM (inactive)
Cc1cccc(NC(=S)NCCC(c2ccccc2)c2ccccc2)c1C | > 100 µM (inactive)
Fc1ccccc1NC(=S)NCCC(c1ccccc1)c1ccccc1 | > 100 µM (inactive)
Cc1cc(Cl)ccc1NC(=S)NCCC(c1ccccc1)c1ccccc1 | > 100 µM (inactive)
COc1ccc(C(=O)CSc2n[nH]c(-c3ccccc3)n2)cc1OC | > 100 µM (inactive)
COc1ccc(Cl)cc1NC(=S)NCCC(c1ccccc1)c1ccccc1 | > 100 µM (inactive)
COc1ccc(Cl)cc1Nc1nc(-c2ccc(O)c(O)c2)cs1 | > 100 µM (inactive)
Cc1ccc(NC(=O)CCNS(=O)(=O)c2ccc3[nH]c(=O)oc3c2)cc1C | > 100 µM (inactive)
S=C(NCCC(c1ccccc1)c1ccccc1)Nc1ccc(Cl)cc1Cl | > 100 µM (inactive)
CC1(c2ccccc2)CC(C)(C)N(C(=S)Nc2ccccc2)c2ccccc21 (stereo not drawn) | > 100 µM (inactive)
CCc1ccccc1Nc1nc(-c2ccc(O)c(O)c2)cs1 | 21.4 µM
O=S(=O)(Nc1ncccn1)c1ccc(NC(=S)NCCC(c2ccccc2)c2ccccc2)cc1 | > 100 µM (inactive)
Cc1c(Cl)cccc1Nc1nc(-c2ccc(O)c(O)c2)cs1 | > 100 µM (inactive)
Cc1ccc(C)c(NC(=S)NCCC(c2ccccc2)c2ccccc2)c1 | > 100 µM (inactive)
COc1cc(NC(=S)NCCC(c2ccccc2)c2ccccc2)cc(OC)c1 | > 100 µM (inactive)
Cc1ccc(NC(=S)NCCC(c2ccccc2)c2ccccc2)cc1 | > 100 µM (inactive)

SMILES | IC50
S=C(NCCC(c1ccccc1)c1ccccc1)Nc1ccc(Nc2ccccc2)cc1 | > 100 µM (inactive)
CCOC(=O)c1ccc(NC(=S)NCCC(c2ccccc2)c2ccccc2)cc1 | > 100 µM (inactive)
COc1ccc(NC(=S)NCCC(c2ccccc2)c2ccccc2)cc1 | > 100 µM (inactive)
Cc1c(Cl)cccc1NC(=S)NCCC(c1ccccc1)c1ccccc1 | > 100 µM (inactive)
Oc1ccc(-c2csc(Nc3cccc4ccccc34)n2)cc1O | 44.1 µM
S=C(NCCC(c1ccccc1)c1ccccc1)Nc1ccc(Cl)cc1 | > 100 µM (inactive)
O=C(CN1C(=O)/C(=C\c2ccco2)SC1=S)Nc1ccccc1C(=O)O | > 100 µM (inactive)
NS(=O)(=O)c1ccc(NC(=S)NCCC(c2ccccc2)c2ccccc2)cc1 | > 100 µM (inactive)
O=C(CN1C(=O)/C(=C/c2ccco2)SC1=S)Nc1ccc(C(=O)O)cc1 | > 100 µM (inactive)
O=[N+]([O-])c1ccc(NC(=S)NCCC(c2ccccc2)c2ccccc2)cc1 | > 100 µM (inactive)
CCn1c(SCC(=O)c2ccc(O)c(O)c2)nnc1-c1ccccc1OC | 14 µM
S=C(NCCC(c1ccccc1)c1ccccc1)Nc1ccccc1 | > 100 µM (inactive)
CCN1CCN(S(=O)(=O)c2ccc3[nH]c(=O)oc3c2)CC1 | > 100 µM (inactive)
CC(C)c1ccccc1NC(=S)NCCC(c1ccccc1)c1ccccc1 | > 100 µM (inactive)
CC(C)N1CCC(=NNC(=O)c2cc(O)c(O)c(O)c2)CC1 | > 100 µM (inactive)
CN1CCC(=NNC(=O)c2cc(O)c(O)c(O)c2)CC1 | > 100 µM (inactive)
COC(=O)c1cc(NC(=S)NCCC(c2ccccc2)c2ccccc2)cc(C(=O)OC)c1 | > 100 µM (inactive)

Results, then the compound that gave them:

IC50 | SMILES
> 100 µM (inactive) | S=C(NCCC(c1ccccc1)c1ccccc1)Nc1ccc(Cl)c(Cl)c1
> 100 µM (inactive) | CCn1cc(CN2CCC(C(=O)Nc3cccc(-c4cccc(F)c4)c3)CC2)cn1
> 100 µM (inactive) | Cc1nn(C)c(Cl)c1CN1CCC(C(=O)Nc2cccc(-c3cccc(F)c3)c2)CC1
> 100 µM (inactive) | CCn1nc(C)c(CN2CCC(C(=O)Nc3cccc(-c4cccc(F)c4)c3)CC2)c1C
> 100 µM (inactive) | CCn1cc(CN2CCC(C(=O)Nc3cccc(-c4cccc(OC)c4)c3)CC2)cn1
> 100 µM (inactive) | CCn1cc(CN2CCC(C(=O)Nc3cccc(-c4cccc(OC)c4)c3)CC2)c(C)n1
> 100 µM (inactive) | CC(C)n1cc(CN2CCC(C(=O)Nc3cccc(-c4cccc(F)c4)c3)CC2)cn1
> 100 µM (inactive) | Cn1cc(CN2CCC(C(=O)Nc3cccc(-c4cccc(F)c4)c3)CC2)cn1
> 100 µM (inactive) | S=C(NCCC(c1ccccc1)c1ccccc1)Nc1cccc(Cl)c1
> 100 µM (inactive) | Cc1nn(C(C)C)c(C)c1CN1CCC(C(=O)Nc2cccc(-c3cccc(F)c3)c2)CC1
> 100 µM (inactive) | COCc1ccc(CN2CCC(C(=O)Nc3cccc(-c4cccc(Cl)c4)c3)CC2)o1
> 100 µM (inactive) | Cc1ccc(NC(=S)NCCC(c2ccccc2)c2ccccc2)cc1C
> 100 µM (inactive) | CCn1ncc(CN2CCC(C(=O)Nc3cccc(-c4cccc(F)c4)c3)CC2)c1C
> 100 µM (inactive) | Cn1cc(CN2CCC(C(=O)Nc3cccc(-c4cccc(Cl)c4)c3)CC2)cn1
> 100 µM (inactive) | Fc1ccc(NC(=S)NCCC(c2ccccc2)c2ccccc2)cc1Cl
> 100 µM (inactive) | O=C(Nc1cccc(-c2cccc(Cl)c2)c1)C1CCN(Cc2ccc(CO)o2)CC1
> 100 µM (inactive) | CN(C)S(=O)(=O)c1cccc(NC(=S)NCCC(c2ccccc2)c2ccccc2)c1

IC50 | SMILES
> 100 µM (inactive) | CCn1nc(C)c(CN2CCC(C(=O)Nc3cccc(-c4cccc(Cl)c4)c3)CC2)c1C
> 100 µM (inactive) | FC(F)(F)c1cccc(NC(=S)NCCC(c2ccccc2)c2ccccc2)c1
> 100 µM (inactive) | COc1cccc(-c2cccc(NC(=O)C3CCN(Cc4ccc(C)o4)CC3)c2)c1
> 100 µM (inactive) | O=C(CN1C(=O)/C(=C/c2ccco2)SC1=S)Nc1cccc(C(=O)O)c1
> 100 µM (inactive) | Cc1cc(C)cc(NC(=S)NCCC(c2ccccc2)c2ccccc2)c1
> 100 µM (inactive) | C=CCn1cc(CN2CCC(C(=O)Nc3cccc(-c4cccc(Cl)c4)c3)CC2)c(C)n1
> 100 µM (inactive) | Cc1ccc(CN2CCC(C(=O)Nc3cccc(-c4cccc(F)c4)c3)CC2)o1
> 100 µM (inactive) | O=C(Nc1cccc(-c2cccc(F)c2)c1)C1CCN(Cc2ccc(CO)o2)CC1
> 100 µM (inactive) | COc1cccc(NC(=S)NCCC(c2ccccc2)c2ccccc2)c1
> 100 µM (inactive) | COc1cccc(-c2cccc(NC(=O)C3CCN(Cc4ccc(CO)o4)CC3)c2)c1
> 100 µM (inactive) | CCn1cc(CN2CCC(C(=O)Nc3cccc(-c4cccc(Cl)c4)c3)CC2)cn1
> 100 µM (inactive) | Cc1cc(=O)oc2cc(NC(=S)NCCC(c3ccccc3)c3ccccc3)ccc12
> 100 µM (inactive) | O=C(Nc1cccc(-c2cccc(Cl)c2)c1)C1CCN(C2CCC2)CC1
> 100 µM (inactive) | CCCn1ncc(CN2CCC(C(=O)Nc3cccc(-c4cccc(F)c4)c3)CC2)c1C
> 100 µM (inactive) | C=CCn1cc(CN2CCC(C(=O)Nc3cccc(-c4cccc(F)c4)c3)CC2)c(C)n1
> 100 µM (inactive) | Cc1c(CN2CCC(C(=O)Nc3cccc(-c4cccc(Cl)c4)c3)CC2)cnn1C
> 100 µM (inactive) | CC(C)n1cc(CN2CCC(C(=O)Nc3cccc(-c4cccc(Cl)c4)c3)CC2)cn1
